# In PubChem BioAssay AID1963442 (Molecular Pharmacology Branch, DTP, NCI, 2024):
# Tested on: MPNST complex spheroid with HUVEC/MSC, growth, % test/control
# Assay: Anticancer human tumor MPNST cell line growth inhibition [Asc];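 further: compounds left on spheroids for seven days before reading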
# Conditions: for IC50: curve of first compound; for viability, T/C: stronger effect = lower value
# Summary of the method: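 Complex spheroids combining tumor cells with HUVEC endothelial cells and human MSCs, at 37 degrees C, 5% CO2; agents tested alone or combined, half-log dilutions from at or near clinical Cmax, or 10 microM if Cmax unknown.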
# [1] = second compound 0.00316 µM, first compound 0.0316 µM
# [2] = second compound 0.00316 µM, first compound 0.1 µM
# [3] = second compound 0.00316 µM, first compound 0.316 µM
# [4] = second compound 0.00316 µM, first compound 1 µM
# [5] = second compound 0.00316 µM, first compound 3.16 µM
# [6] = second compound 0.00316 µM, first compound 10 µM
# [7] = second compound 0.01 µM, first compound 0.0316 µM
# [8] = second compound 0.01 µM, first compound 0.1 µM
# [9] = second compound 0.01 µM, first compound 0.316 µM
# [10] = second compound 0.01 µM, first compound 1 µM
# [11] = second compound 0.01 µM, first compound 3.16 µM
# [12] = second compound 0.01 µM, first compound 10 µM
# [13] = second compound 0.0316 µM, first compound 0.0316 µM
# [14] = second compound 0.0316 µM, first compound 0.1 µM
# [15] = second compound 0.0316 µM, first compound 0.316 µM
# [16] = second compound 0.0316 µM, first compound 1 µM
# [17] = second compound 0.0316 µM, first compound 3.16 µM
# [18] = second compound 0.0316 µM, first compound 10 µM
# [19] = second compound 0.1 µM, first compound 0.0316 µM
# [20] = second compound 0.1 µM, first compound 0.1 µM
# [21] = second compound 0.1 µM, first compound 0.316 µM
# [22] = second compound 0.1 µM, first compound 1 µM
# [23] = second compound 0.1 µM, first compound 3.16 µM
# [24] = second compound 0.1 µM, first compound 10 µM
# [25] = second compound 0.316 µM, first compound 0.0316 µM
# [26] = second compound 0.316 µM, first compound 0.1 µM
# [27] = second compound 0.316 µM, first compound 0.316 µM
# [28] = second compound 0.316 µM, first compound 1 µM
# [29] = second compound 0.316 µM, first compound 3.16 µM
# [30] = second compound 0.316 µM, first compound 10 µM
# [31] = second compound 1 µM, first compound 0.0316 µM
# [32] = second compound 1 µM, first compound 0.1 µM
# [33] = second compound 1 µM, first compound 0.316 µM
# [34] = second compound 1 µM, first compound 1 µM
# [35] = second compound 1 µM, first compound 3.16 µM
# [36] = second compound 1 µM, first compound 10 µM
smiles,measurement,setting,value
C#Cc1c(F)ccc2cc(O)cc(-c3ncc4c(N5CC6CCC(C5)N6)nc(OCC56CCCN5CC(F)C6)nc4c3F)c12 (stereo not drawn) + CNC(C)C(=O)NC1CN(S(=O)(=O)c2cccc(S(=O)(=O)N3CCC4CCC(C(=O)NC(c5ccccc5)c5ccccc5)N4C(=O)C(NC(=O)C(C)NC)C3)c2)CCC2CCC(C(=O)NC(c3ccccc3)c3ccccc3)N2C1=O,IC50,second compound 0.00316 µM,> 10 µM
same,IC50,second compound 0.01 µM,> 10 µM
same,IC50,second compound 0.0316 µM,> 10 µM
same,IC50,second compound 0.1 µM,> 10 µM
same,IC50,second compound 0.316 µM,> 10 µM
same,IC50,second compound 1 µM,> 10 µM
same,"viability, T/C",[1],65.6%
same,"viability, T/C",[2],43.9%
same,"viability, T/C",[3],57.7%
same,"viability, T/C",[4],78.2%
same,"viability, T/C",[5],75.3%
same,"viability, T/C",[6],53%
same,"viability, T/C",[7],96%
same,"viability, T/C",[8],99.5%
same,"viability, T/C",[9],60.1%
same,"viability, T/C",[10],63.5%
same,"viability, T/C",[11],73.1%
same,"viability, T/C",[12],46.2%
same,"viability, T/C",[13],103%
same,"viability, T/C",[14],66.8%
same,"viability, T/C",[15],69%
same,"viability, T/C",[16],70.5%
same,"viability, T/C",[17],52.1%
same,"viability, T/C",[18],56.6%
same,"viability, T/C",[19],56%
same,"viability, T/C",[20],67.8%
same,"viability, T/C",[21],78.2%
same,"viability, T/C",[22],64.1%
same,"viability, T/C",[23],63.2%
same,"viability, T/C",[24],53.1%
same,"viability, T/C",[25],73.2%
same,"viability, T/C",[26],75.1%
same,"viability, T/C",[27],70%
same,"viability, T/C",[28],58.3%
same,"viability, T/C",[29],60.3%
same,"viability, T/C",[30],67.3%
same,"viability, T/C",[31],76%
same,"viability, T/C",[32],79.5%
same,"viability, T/C",[33],69.4%
same,"viability, T/C",[34],82.5%
same,"viability, T/C",[35],62.2%
same,"viability, T/C",[36],84.3%
C=C(F)C(=O)N1CCN(c2nc(OCC3CCCN3C)nc3c2CCN(c2cccc4cccc(Cl)c24)C3)CC1CC#N (stereo not drawn) + CNC(C)C(=O)NC1CN(S(=O)(=O)c2cccc(S(=O)(=O)N3CCC4CCC(C(=O)NC(c5ccccc5)c5ccccc5)N4C(=O)C(NC(=O)C(C)NC)C3)c2)CCC2CCC(C(=O)NC(c3ccccc3)c3ccccc3)N2C1=O,IC50,second compound 0.00316 µM,3.75 µM
same,IC50,second compound 0.01 µM,4.2 µM
same,IC50,second compound 0.0316 µM,1.81 µM
same,IC50,second compound 0.1 µM,3.55 µM
same,IC50,second compound 0.316 µM,3.43 µM
same,IC50,second compound 1 µM,3.64 µM
same,"viability, T/C",[1],77%
same,"viability, T/C",[2],75.2%
same,"viability, T/C",[3],65.9%
same,"viability, T/C",[4],89.8%
same,"viability, T/C",[5],58.3%
same,"viability, T/C",[6],1.84%
same,"viability, T/C",[7],85.9%
same,"viability, T/C",[8],75.9%
same,"viability, T/C",[9],97.4%
same,"viability, T/C",[10],85%
same,"viability, T/C",[11],66.2%
same,"viability, T/C",[12],0.9%
same,"viability, T/C",[13],99.4%
same,"viability, T/C",[14],76.5%
same,"viability, T/C",[15],81.4%
same,"viability, T/C",[16],54.6%
same,"viability, T/C",[17],46.9%
same,"viability, T/C",[18],1%
same,"viability, T/C",[19],79.3%
same,"viability, T/C",[20],58.5%
same,"viability, T/C",[21],88.4%
same,"viability, T/C",[22],73.5%
same,"viability, T/C",[23],55.6%
same,"viability, T/C",[24],1.36%
same,"viability, T/C",[25],103%
same,"viability, T/C",[26],52.8%
same,"viability, T/C",[27],61%
same,"viability, T/C",[28],69.5%
same,"viability, T/C",[29],57%
same,"viability, T/C",[30],1.32%
same,"viability, T/C",[31],91.9%
same,"viability, T/C",[32],60.4%
same,"viability, T/C",[33],51%
same,"viability, T/C",[34],77.1%
same,"viability, T/C",[35],56.8%
same,"viability, T/C",[36],0.71%
C=CC(=O)N1CCN(c2nc(=O)n(-c3c(C)ccnc3C(C)C)c3nc(-c4c(O)cccc4F)c(F)cc23)C(C)C1 (stereo not drawn) + CNC(C)C(=O)NC1CN(S(=O)(=O)c2cccc(S(=O)(=O)N3CCC4CCC(C(=O)NC(c5ccccc5)c5ccccc5)N4C(=O)C(NC(=O)C(C)NC)C3)c2)CCC2CCC(C(=O)NC(c3ccccc3)c3ccccc3)N2C1=O,IC50,second compound 0.00316 µM,> 10 µM
same,IC50,second compound 0.01 µM,> 10 µM
same,IC50,second compound 0.0316 µM,> 10 µM
same,IC50,second compound 0.1 µM,> 10 µM
same,IC50,second compound 0.316 µM,> 10 µM
same,IC50,second compound 1 µM,> 10 µM
same,"viability, T/C",[1],81.6%
same,"viability, T/C",[2],98.1%
same,"viability, T/C",[3],94.1%
same,"viability, T/C",[4],102%
same,"viability, T/C",[5],110%
same,"viability, T/C",[6],128%
same,"viability, T/C",[7],81.2%
same,"viability, T/C",[8],101%
same,"viability, T/C",[9],84%
same,"viability, T/C",[10],112%
same,"viability, T/C",[11],114%
same,"viability, T/C",[12],145%
same,"viability, T/C",[13],96.1%
same,"viability, T/C",[14],69.1%
same,"viability, T/C",[15],127%
same,"viability, T/C",[16],109%
same,"viability, T/C",[17],125%
same,"viability, T/C",[18],185%
same,"viability, T/C",[19],101%
same,"viability, T/C",[20],92.7%
same,"viability, T/C",[21],117%
same,"viability, T/C",[22],107%
same,"viability, T/C",[23],127%
same,"viability, T/C",[24],161%
same,"viability, T/C",[25],73%
same,"viability, T/C",[26],79.5%
same,"viability, T/C",[27],113%
same,"viability, T/C",[28],106%
same,"viability, T/C",[29],115%
same,"viability, T/C",[30],148%
same,"viability, T/C",[31],98.4%
same,"viability, T/C",[32],99.9%
same,"viability, T/C",[33],102%
same,"viability, T/C",[34],79%
same,"viability, T/C",[35],143%
same,"viability, T/C",[36],154%
CCN1C(C(=O)NC23CCC(C(=O)O)(CC2)CC3)C(c2cccc(Cl)c2F)C2(C(=O)Nc3cc(Cl)ccc32)C12CCCCC2 (stereo not drawn) + CNC(C)C(=O)NC1CN(S(=O)(=O)c2cccc(S(=O)(=O)N3CCC4CCC(C(=O)NC(c5ccccc5)c5ccccc5)N4C(=O)C(NC(=O)C(C)NC)C3)c2)CCC2CCC(C(=O)NC(c3ccccc3)c3ccccc3)N2C1=O,IC50,second compound 0.00316 µM,> 3 µM
same,IC50,second compound 0.01 µM,> 3 µM
same,IC50,second compound 0.0316 µM,> 3 µM
same,IC50,second compound 0.1 µM,> 3 µM
same,IC50,second compound 0.316 µM,> 3 µM
same,IC50,second compound 1 µM,> 3 µM
same,"viability, T/C","second compound 0.00316 µM, first compound 0.00949 µM",98.4%
same,"viability, T/C","second compound 0.00316 µM, first compound 0.03 µM",64.1%
same,"viability, T/C","second compound 0.00316 µM, first compound 0.0949 µM",79.5%
same,"viability, T/C","second compound 0.00316 µM, first compound 0.3 µM",85.6%
same,"viability, T/C","second compound 0.00316 µM, first compound 0.949 µM",74.1%
same,"viability, T/C","second compound 0.00316 µM, first compound 3 µM",76%
same,"viability, T/C","second compound 0.01 µM, first compound 0.00949 µM",100%
same,"viability, T/C","second compound 0.01 µM, first compound 0.03 µM",106%
same,"viability, T/C","second compound 0.01 µM, first compound 0.0949 µM",86.3%
same,"viability, T/C","second compound 0.01 µM, first compound 0.3 µM",64.1%
same,"viability, T/C","second compound 0.01 µM, first compound 0.949 µM",78.9%
same,"viability, T/C","second compound 0.01 µM, first compound 3 µM",63.4%
same,"viability, T/C","second compound 0.0316 µM, first compound 0.00949 µM",87.2%
same,"viability, T/C","second compound 0.0316 µM, first compound 0.03 µM",66.3%
same,"viability, T/C","second compound 0.0316 µM, first compound 0.0949 µM",69.3%
same,"viability, T/C","second compound 0.0316 µM, first compound 0.3 µM",70.5%
same,"viability, T/C","second compound 0.0316 µM, first compound 0.949 µM",68.8%
same,"viability, T/C","second compound 0.0316 µM, first compound 3 µM",68.1%
same,"viability, T/C","second compound 0.1 µM, first compound 0.00949 µM",92.9%
same,"viability, T/C","second compound 0.1 µM, first compound 0.03 µM",77.7%
same,"viability, T/C","second compound 0.1 µM, first compound 0.0949 µM",70.3%
same,"viability, T/C","second compound 0.1 µM, first compound 0.3 µM",80.6%
same,"viability, T/C","second compound 0.1 µM, first compound 0.949 µM",58.5%
same,"viability, T/C","second compound 0.1 µM, first compound 3 µM",64.6%
same,"viability, T/C","second compound 0.316 µM, first compound 0.00949 µM",68.8%
same,"viability, T/C","second compound 0.316 µM, first compound 0.03 µM",71.5%
same,"viability, T/C","second compound 0.316 µM, first compound 0.0949 µM",86%
same,"viability, T/C","second compound 0.316 µM, first compound 0.3 µM",68.2%
same,"viability, T/C","second compound 0.316 µM, first compound 0.949 µM",68.1%
same,"viability, T/C","second compound 0.316 µM, first compound 3 µM",62.1%
same,"viability, T/C","second compound 1 µM, first compound 0.00949 µM",97%
same,"viability, T/C","second compound 1 µM, first compound 0.03 µM",68.2%
same,"viability, T/C","second compound 1 µM, first compound 0.0949 µM",87.7%
same,"viability, T/C","second compound 1 µM, first compound 0.3 µM",65.3%
same,"viability, T/C","second compound 1 µM, first compound 0.949 µM",65.6%
same,"viability, T/C","second compound 1 µM, first compound 3 µM",70.2%
